Assay [1] concerns the target Kappa-type opioid receptor (Homo sapiens, UniProt P41145).
Another assay concerns the target T1, Adenosine receptor A1 (Homo sapiens, UniProt P30542).
T1 sequence (P30542 whole entry): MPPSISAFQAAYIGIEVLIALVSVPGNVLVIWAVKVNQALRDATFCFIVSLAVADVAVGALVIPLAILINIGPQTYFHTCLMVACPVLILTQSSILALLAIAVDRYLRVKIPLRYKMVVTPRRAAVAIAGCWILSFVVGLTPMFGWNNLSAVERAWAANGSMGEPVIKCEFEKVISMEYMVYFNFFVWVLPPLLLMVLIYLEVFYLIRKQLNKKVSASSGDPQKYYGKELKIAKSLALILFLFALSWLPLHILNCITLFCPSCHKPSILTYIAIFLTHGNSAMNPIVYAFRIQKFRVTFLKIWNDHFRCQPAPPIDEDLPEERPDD

For another assay, the target named is Histamine H1 receptor (Homo sapiens, UniProt P35367).
The target of assay [2] is T2, Amine oxidase [flavin-containing] A (Homo sapiens, UniProt P21397).
T2 sequence (P21397 whole entry): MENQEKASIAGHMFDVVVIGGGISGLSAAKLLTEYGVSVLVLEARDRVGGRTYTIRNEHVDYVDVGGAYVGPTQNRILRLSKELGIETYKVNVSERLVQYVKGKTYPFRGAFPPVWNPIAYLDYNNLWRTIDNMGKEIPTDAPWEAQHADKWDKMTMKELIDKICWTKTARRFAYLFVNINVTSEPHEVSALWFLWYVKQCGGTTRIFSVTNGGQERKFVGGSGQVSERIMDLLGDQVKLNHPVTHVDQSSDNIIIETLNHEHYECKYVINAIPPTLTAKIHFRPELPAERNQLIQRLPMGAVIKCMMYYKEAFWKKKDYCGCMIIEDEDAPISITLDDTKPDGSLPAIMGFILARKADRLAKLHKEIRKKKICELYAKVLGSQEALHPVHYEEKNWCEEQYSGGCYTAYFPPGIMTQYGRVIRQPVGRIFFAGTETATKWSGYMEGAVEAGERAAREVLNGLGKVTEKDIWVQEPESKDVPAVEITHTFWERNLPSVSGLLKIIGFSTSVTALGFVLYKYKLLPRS
The assay is classed as functional.

For assay [3], the target named is 5-hydroxytryptamine receptor 2A (Homo sapiens, UniProt P28223). The class given is functional, cell-based.
Assay [4] concerns the target Sodium-dependent serotonin transporter (Homo sapiens, UniProt P31645).
The target in assay [5] is T3, 5-hydroxytryptamine receptor 2C (Homo sapiens, UniProt P28335).
T3 sequence (P28335 whole entry): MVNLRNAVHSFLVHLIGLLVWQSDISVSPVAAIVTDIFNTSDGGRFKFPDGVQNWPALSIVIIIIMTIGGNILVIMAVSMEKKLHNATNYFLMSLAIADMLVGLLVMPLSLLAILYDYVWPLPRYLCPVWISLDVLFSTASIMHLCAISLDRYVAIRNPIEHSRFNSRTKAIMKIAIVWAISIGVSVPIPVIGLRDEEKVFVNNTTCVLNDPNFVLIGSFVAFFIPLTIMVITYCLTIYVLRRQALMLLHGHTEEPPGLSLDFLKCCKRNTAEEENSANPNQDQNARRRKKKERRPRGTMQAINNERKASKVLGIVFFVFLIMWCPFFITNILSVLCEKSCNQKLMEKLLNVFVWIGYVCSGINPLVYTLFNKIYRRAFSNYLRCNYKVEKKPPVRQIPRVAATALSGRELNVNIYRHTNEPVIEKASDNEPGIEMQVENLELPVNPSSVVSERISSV

This is an account of results in ChEMBL document CHEMBL5291721, “A preclinical secondary pharmacology resource illuminates target-adverse drug reaction associations of marketed drugs” (Nat Commun, 2023).
Further: assay procedure not described here.

Chain of Kappa-type opioid receptor (P41145 whole entry): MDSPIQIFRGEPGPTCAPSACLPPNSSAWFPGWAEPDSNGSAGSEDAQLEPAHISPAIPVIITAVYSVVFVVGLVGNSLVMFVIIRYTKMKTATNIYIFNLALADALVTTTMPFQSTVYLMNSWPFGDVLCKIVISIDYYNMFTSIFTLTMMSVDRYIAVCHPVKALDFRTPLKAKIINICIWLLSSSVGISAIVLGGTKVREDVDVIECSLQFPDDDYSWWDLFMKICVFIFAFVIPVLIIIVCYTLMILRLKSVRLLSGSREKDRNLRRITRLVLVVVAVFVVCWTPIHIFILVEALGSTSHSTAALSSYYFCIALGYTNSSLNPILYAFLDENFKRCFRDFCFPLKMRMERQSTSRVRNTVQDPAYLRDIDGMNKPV
Chain of Sodium-dependent serotonin transporter (P31645 whole entry): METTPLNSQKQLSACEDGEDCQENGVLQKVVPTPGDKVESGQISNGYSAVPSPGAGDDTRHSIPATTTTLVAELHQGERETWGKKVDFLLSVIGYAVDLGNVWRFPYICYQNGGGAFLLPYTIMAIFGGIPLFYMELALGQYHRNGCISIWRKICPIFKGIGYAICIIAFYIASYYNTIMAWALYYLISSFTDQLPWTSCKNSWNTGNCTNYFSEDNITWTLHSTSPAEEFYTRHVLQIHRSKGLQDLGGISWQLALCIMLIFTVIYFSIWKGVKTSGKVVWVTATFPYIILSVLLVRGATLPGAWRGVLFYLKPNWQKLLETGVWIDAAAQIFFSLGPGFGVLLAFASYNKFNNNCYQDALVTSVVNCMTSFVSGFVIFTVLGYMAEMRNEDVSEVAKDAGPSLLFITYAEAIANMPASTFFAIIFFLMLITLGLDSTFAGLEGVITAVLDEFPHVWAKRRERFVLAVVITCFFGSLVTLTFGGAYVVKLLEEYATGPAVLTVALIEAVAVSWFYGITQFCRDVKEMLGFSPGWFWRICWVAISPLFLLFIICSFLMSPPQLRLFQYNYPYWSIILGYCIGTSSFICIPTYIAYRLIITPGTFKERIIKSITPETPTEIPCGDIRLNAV
Chain of 5-hydroxytryptamine receptor 2A (P28223 whole entry): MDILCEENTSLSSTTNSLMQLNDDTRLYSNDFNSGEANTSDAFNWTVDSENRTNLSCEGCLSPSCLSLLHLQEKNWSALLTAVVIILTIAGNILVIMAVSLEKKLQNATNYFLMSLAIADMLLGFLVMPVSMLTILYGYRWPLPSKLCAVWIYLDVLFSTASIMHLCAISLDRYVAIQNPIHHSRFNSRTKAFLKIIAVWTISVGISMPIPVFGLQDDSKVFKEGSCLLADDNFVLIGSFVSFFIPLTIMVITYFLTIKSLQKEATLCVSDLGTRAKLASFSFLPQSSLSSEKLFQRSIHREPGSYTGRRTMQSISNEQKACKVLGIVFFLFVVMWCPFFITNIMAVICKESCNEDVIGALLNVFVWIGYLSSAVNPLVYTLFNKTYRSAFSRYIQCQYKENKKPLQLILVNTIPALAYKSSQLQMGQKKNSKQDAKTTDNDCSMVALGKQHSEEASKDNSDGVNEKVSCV
Chain of Histamine H1 receptor (P35367 whole entry): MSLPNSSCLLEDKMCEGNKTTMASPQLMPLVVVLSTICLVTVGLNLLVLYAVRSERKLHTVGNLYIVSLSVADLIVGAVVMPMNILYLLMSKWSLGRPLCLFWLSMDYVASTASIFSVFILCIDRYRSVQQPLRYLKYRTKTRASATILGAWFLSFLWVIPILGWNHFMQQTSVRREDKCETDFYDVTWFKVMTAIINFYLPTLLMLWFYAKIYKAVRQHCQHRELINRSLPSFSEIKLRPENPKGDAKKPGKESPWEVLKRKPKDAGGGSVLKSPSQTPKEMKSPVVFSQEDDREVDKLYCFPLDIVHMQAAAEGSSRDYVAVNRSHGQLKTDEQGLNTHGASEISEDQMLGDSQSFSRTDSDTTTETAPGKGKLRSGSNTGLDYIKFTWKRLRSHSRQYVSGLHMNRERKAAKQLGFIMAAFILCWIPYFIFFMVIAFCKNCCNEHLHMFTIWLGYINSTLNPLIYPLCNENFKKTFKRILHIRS

For orientation: AC50 means the concentration giving half of the maximal activity seen. Read a high AC50 as weaker potency. Take `C#C[C@]1(O)CC[C@H]2[C@@H]3CCC4=CC(=O)CC[C@@H]4[C@H]3C(=C)C[C@@]21CC` [ETONOGESTREL]: the AC50 (in assay [1]; at Adenosine receptor A1; at Histamine H1 receptor; in assay [2]; in assay [3]; in assay [4]) was over 30 µM throughout. The AC50 in assay [5] is over 10 µM.

Regarding `CN(CC1(C)CCCO1)S(=O)(=O)c1ccc(Cl)c(S(N)(=O)=O)c1` (stereo unspecified) [MEFRUSIDE], the AC50 (in assay [1]; at Adenosine receptor A1; at Histamine H1 receptor; in assay [2]; in assay [3]; in assay [4]) was over 30 µM throughout. In assay [5], this compound yielded an AC50 of over 30 µM.

In the case of `CC(=O)O[C@]1(C(C)=O)CC[C@H]2[C@@H]3C=C(C)C4=CC(=O)CC[C@@H]4[C@H]3CC[C@@]21C` [NOMEGESTROL ACETATE], the AC50 (in assay [1]; on Adenosine receptor A1; at Histamine H1 receptor; in assay [2]; in assay [3]; in assay [4]) was over 30 µM each time. The compound further displayed an AC50 in assay [5] of over 30 µM.
